The subject of one assay is H3K36me3 in A549 cells. The experiment in a line: In-Cell Western (ICW) assay of SETD2 inhibitors (A549 assay). The note with it: Homo sapiens; A549 cells; read-out: SETD2 A549. It counts as cell-based, human. An outline of the steps: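 A549 cells seeded at 4,000/well onto compound and incubated 3 days at 37° C. Methanol-fixed cells stained overnight at 4° C with anti-H3K36me3 (1:1000), then IRDye 800CW secondary with DRAQ5 DNA counterstain. Plates read by Licor imaging at 700 and 800 channels.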
Regarding `Cc1ccc(F)c2cc(C(=O)Nc3cc(F)cc(C4CCN(C(=O)CN(C)C)C4)c3)[nH]c12` (stereo not shown) [compound 140], the IC50 was found to be 300 nM.
On the same count and under the same terms, under `Cc1ccc(F)c2cc(C(=O)Nc3cccc(C4CCN(C)CC4)c3)[nH]c12` [compound 168] stands 300 nM.
The same measure, in the same setting: under `COC(=O)N1CCC2(CCN(c3cccc(NC(=O)c4cc5c(F)ccc(C)c5[nH]4)c3)CC2)C1` [compound 127] stands 300 nM; under `COc1ccnc(C(NC(=O)c2cc3c(F)ccc(C)c3[nH]2)C2CC2)c1C` (stereo not shown) [compound 269], 700 nM; under `Cc1ccc(F)c2cc(C(=O)Nc3cccc(-c4ccn(C)n4)c3)[nH]c12` [compound 394], 2100 nM.
Turning to `Cc1cc(Cn2cc[nH]c2=O)cnc1C(NC(=O)c1cc2c(F)ccc(C)c2[nH]1)C1CC1` (stereo not shown) [compound 273], the IC50 is 800 nM.
The same measure, in the same setting: the figure for `CC[C@H]1CN([C@H]2CCC[C@@H](NC(=O)c3cc4c(F)ccc(C)c4[nH]3)C2)CCN1C(C)=O` [compound 1085] is 100 nM.
For `Cc1ccc(F)c2cc(C(=O)N[C@H]3CCC[C@@H](C4=NNC(=O)CN4)C3)[nH]c12` [compound 1188], the IC50 is 1800 nM.
The same measure, in the same setting: the figure for `Cc1ccc(F)c2cc(C(=O)N[C@@H]3CCC[C@H](N4CC5(CNC(=O)C5)C4)C3)[nH]c12` [compound 897] is 100 nM; for `Cc1ccc(F)c2cc(C(=O)N[C@H]3CCC[C@@H](c4cncnc4)C3)[nH]c12` [compound 131] it is 300 nM.
Consider `Cc1ccc(F)c2cc(C(=O)Nc3cccc(N4CCCC4=O)c3)[nH]c12` [compound 118], for which the IC50 stood at 200 nM.
On the same count and under the same terms, the figure for `Cc1ccc(F)c2cc(C(=O)NC3C(=O)NCc4ccccc43)[nH]c12` (stereo not shown) [compound 458] is 6200 nM.
As for `Cc1ccc(F)c2cc(C(=O)Nc3cccc(N4CCOCC4CCO)c3)[nH]c12` (stereo not shown) [compound 331], the IC50 is 1600 nM.
As for `Cc1ccc(F)c2cc(C(=O)N[C@@H]3CCC[C@@H](N4CCn5cncc5C4)C3)[nH]c12` [compound 992], the IC50 was greater than 2000 nM.
On the same count and under the same terms, the figure for `Cc1ccc(F)c2cc(C(=O)N[C@H]3CCCN(C4CCN(C(=O)CN(C)C)CC4)C3)[nH]c12` [compound 892] is greater than 2000 nM.
Turning to `Cc1ccc(F)c2cc(C(=O)Nc3cccc(N4CC(C)OCC4C)c3)[nH]c12` (stereo not shown) [compound 289], the IC50 turned out to be 1100 nM.
As for `CC(=O)N(C)C1CCCN(C2COCC(NC(=O)c3cc4c(F)ccc(C)c4[nH]3)C2)C1` (stereo not shown) [compound 305], the IC50 was found to be 1200 nM.
The same measure, in the same setting: under `Cc1ccc(F)c2cc(C(=O)Nc3cccc(N4CCC5(CCN(CC(F)F)CC5)C4)c3)[nH]c12` [compound 259] stands 600 nM; under `CN[C@H]1CCN([C@@H]2CCC[C@@H](NC(=O)c3cc4c(F)ccc(C)c4[nH]3)C2)C1` [compound 1088], greater than 2000 nM; under `Cc1ccc(F)c2cc(C(=O)Nc3cccc(N(C)C4CCN(C)C4)c3)[nH]c12` (stereo not shown) [compound 342], 1800 nM.
The same measure, in the same setting: under `Cc1ccc(F)c2cc(C(=O)Nc3cccc(N4CCN(C5CCOC5)CC4)c3)[nH]c12` (stereo not shown) [compound 146] stands 300 nM; under `Cc1ccc(F)c2cc(C(=O)Nc3cc(F)cc(N4CCC(C)(N5CCOCC5)C4)c3)[nH]c12` (stereo not shown) [compound 159], 300 nM; under `Cc1cccc2cc(C(=O)NCCc3ccccc3N3CCOC(CN(C)C)C3)[nH]c12` (stereo not shown) [compound 566], greater than 25000 nM.
As for `Cc1ccc(F)c2cc(C(=O)N[C@@H]3CCC[C@@H](N4CCC5(CC4)CNC(=O)C5)C3)[nH]c12` [compound 929], the IC50 was greater than 2000 nM.
Still for that read-out and setting: the figure for `COCC(=O)N(C)[C@H]1CCN([C@@H]2CCC[C@@H](NC(=O)c3cc4c(F)ccc(C)c4[nH]3)C2)C1` [compound 1063] is greater than 2000 nM; for `Cc1ccc(F)c2cc(C(=O)Nc3cccc(N4CCN(C(=O)CCO)CC4)c3)[nH]c12` [compound 149] it is 300 nM.

The next assay concerns the target T1, SETD2(1434-1711) (Homo sapiens, UniProt Q9BYW2).
T1 construct: SETD2 (1434-1711) Assay; catalogue N/A
T1 sequence (Q9BYW2 1434-1711): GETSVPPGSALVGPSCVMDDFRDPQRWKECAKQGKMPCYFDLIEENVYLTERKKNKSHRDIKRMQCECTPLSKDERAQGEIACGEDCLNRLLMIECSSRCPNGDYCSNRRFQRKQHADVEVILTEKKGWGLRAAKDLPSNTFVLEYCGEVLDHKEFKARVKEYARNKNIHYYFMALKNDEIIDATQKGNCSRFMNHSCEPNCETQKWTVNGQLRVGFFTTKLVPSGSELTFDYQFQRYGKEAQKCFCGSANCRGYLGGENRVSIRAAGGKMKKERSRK
The experiment in a line: SETD2 (1434-1711) assay. The assay is classed as biochemical. The note with it: read-out: SETD2 (1434-1711).
Turning to `Cc1ccc(F)c2cc(C(=O)Nc3cc(F)cc(C4CCN(C(=O)CN(C)C)C4)c3)[nH]c12` (stereo not shown) [compound 140], the IC50 amounted to 10 nM.
For the molecule `Cc1ccc(F)c2cc(C(=O)Nc3cccc(C4CCN(C)CC4)c3)[nH]c12` [compound 168], the IC50 came to 20 nM.
In the case of `COC(=O)N1CCC2(CCN(c3cccc(NC(=O)c4cc5c(F)ccc(C)c5[nH]4)c3)CC2)C1` [compound 127], the IC50 was determined as 40 nM.
`COc1ccnc(C(NC(=O)c2cc3c(F)ccc(C)c3[nH]2)C2CC2)c1C` (stereo not shown) [compound 269]: the IC50 stood at 100 nM.
Turning to `Cc1ccc(F)c2cc(C(=O)Nc3cccc(-c4ccn(C)n4)c3)[nH]c12` [compound 394], the IC50 was found to be 200 nM.
Same read-out and setting: under `Cc1cc(Cn2cc[nH]c2=O)cnc1C(NC(=O)c1cc2c(F)ccc(C)c2[nH]1)C1CC1` (stereo not shown) [compound 273] stands 200 nM; under `CC[C@H]1CN([C@H]2CCC[C@@H](NC(=O)c3cc4c(F)ccc(C)c4[nH]3)C2)CCN1C(C)=O` [compound 1085], 30 nM.
On the same count and under the same terms, the figure for `Cc1ccc(F)c2cc(C(=O)N[C@H]3CCC[C@@H](C4=NNC(=O)CN4)C3)[nH]c12` [compound 1188] is 200 nM; for `Cc1ccc(F)c2cc(C(=O)N[C@@H]3CCC[C@H](N4CC5(CNC(=O)C5)C4)C3)[nH]c12` [compound 897] it is 10 nM.
The same measure, in the same setting: the figure for `Cc1ccc(F)c2cc(C(=O)N[C@H]3CCC[C@@H](c4cncnc4)C3)[nH]c12` [compound 131] is 100 nM; for `Cc1ccc(F)c2cc(C(=O)Nc3cccc(N4CCCC4=O)c3)[nH]c12` [compound 118] it is 50 nM.
As for `Cc1ccc(F)c2cc(C(=O)NC3C(=O)NCc4ccccc43)[nH]c12` (stereo not shown) [compound 458], the IC50 was 2200 nM.
Take `Cc1ccc(F)c2cc(C(=O)Nc3cccc(N4CCOCC4CCO)c3)[nH]c12` (stereo not shown) [compound 331]: the IC50 stood at 600 nM.
On the same count and under the same terms, under `Cc1ccc(F)c2cc(C(=O)N[C@@H]3CCC[C@@H](N4CCn5cncc5C4)C3)[nH]c12` [compound 992] stands 1900 nM.
Still for that read-out and setting: under `Cc1ccc(F)c2cc(C(=O)N[C@H]3CCCN(C4CCN(C(=O)CN(C)C)CC4)C3)[nH]c12` [compound 892] stands greater than 10000 nM; under `Cc1ccc(F)c2cc(C(=O)Nc3cccc(N4CC(C)OCC4C)c3)[nH]c12` (stereo not shown) [compound 289], 400 nM; under `CC(=O)N(C)C1CCCN(C2COCC(NC(=O)c3cc4c(F)ccc(C)c4[nH]3)C2)C1` (stereo not shown) [compound 305], 500 nM.
Same read-out and setting: the figure for `Cc1ccc(F)c2cc(C(=O)Nc3cccc(N4CCC5(CCN(CC(F)F)CC5)C4)c3)[nH]c12` [compound 259] is 100 nM; for `CN[C@H]1CCN([C@@H]2CCC[C@@H](NC(=O)c3cc4c(F)ccc(C)c4[nH]3)C2)C1` [compound 1088] it is 2200 nM.
`Cc1ccc(F)c2cc(C(=O)Nc3cccc(N(C)C4CCN(C)C4)c3)[nH]c12` (stereo not shown) [compound 342]: the IC50 is 100 nM.
Consider `Cc1ccc(F)c2cc(C(=O)Nc3cccc(N4CCN(C5CCOC5)CC4)c3)[nH]c12` (stereo not shown) [compound 146], for which the IC50 worked out at 200 nM.
Same read-out and setting: under `Cc1ccc(F)c2cc(C(=O)Nc3cc(F)cc(N4CCC(C)(N5CCOCC5)C4)c3)[nH]c12` (stereo not shown) [compound 159] stands 80 nM; under `Cc1cccc2cc(C(=O)NCCc3ccccc3N3CCOC(CN(C)C)C3)[nH]c12` (stereo not shown) [compound 566], 12900 nM; under `Cc1ccc(F)c2cc(C(=O)N[C@@H]3CCC[C@@H](N4CCC5(CC4)CNC(=O)C5)C3)[nH]c12` [compound 929], 1700 nM.
Same read-out and setting: the figure for `COCC(=O)N(C)[C@H]1CCN([C@@H]2CCC[C@@H](NC(=O)c3cc4c(F)ccc(C)c4[nH]3)C2)C1` [compound 1063] is 2900 nM; for `Cc1ccc(F)c2cc(C(=O)Nc3cccc(N4CCN(C(=O)CCO)CC4)c3)[nH]c12` [compound 149] it is 70 nM.

The values are drawn from patent publication US12116358B2, “Substituted indoles and methods of use thereof” (EPIZYME, INC., priority 2018, dated 2024).
